Reference: patent publication US8415106B2, “Cell-based screen for agents useful for reducing neuronal demyelination or promoting neuronal remyelination” (Myelin Repair Foundation, Inc., priority 2005, dated 2013)

Columns and labels:
[1] = system: myelin basic protein (MBP); assay: Hippocampal organotypic cultures (HOC), in vitro model of myelination, MBP Western blot; type: cell-based; conditions: 7 days
Experimental: HOCs, were prepared and maintained as described previously (Kunkler and Kraig (1997) J Cereb Blood Flow Metab. 17:26-43), and were maintained in vitro for 7 days before use. SAL at various concentrations was combined with 100 U/ml IFN-γ and added to the HOC cultures for 7 days. […] After 7 days of 100 U/ml IFN-γ exposure, the levels of MBP decreased approximately 80% in the HOCs (FIG. 29).

PP1-GADD34 phosphatase = conditions: Boyce, et al. (2005) Science 307:935-939; cited from earlier work

In the case of `O=C(/C=C/c1ccccc1)NC(NC(=S)Nc1cccc2cccnc12)C(Cl)(Cl)Cl` (stereo not drawn) [SAL, salubrinal], the “reduction of MBP expression elicited by IFN-γ exposure” value ([1]; SAL at various concentrations combined with 100 U/ml IFN-γ) is given as “markedly attenuated”, the MBP expression ([1]; SAL treatment alone) is given as “did not affect MBP expression” and the PP1-GADD34 phosphatase activity (PP1-GADD34 phosphatase) is given as “specifically inhibits the PP1-GADD34 phosphatase activity”.
